# According to US7709482B2, “Polycyclic heteroaryl substituted triazoles useful as Axl inhibitors” (Rigel Pharmaceuticals, Inc., priority 2006, dated 2010):
# Molecular target: T1, Axl (Homo sapiens, UniProt P30530)
# T1 construct: endogenous in cells; host or cells: HeLa cells
# T1 sequence (P30530 26-894): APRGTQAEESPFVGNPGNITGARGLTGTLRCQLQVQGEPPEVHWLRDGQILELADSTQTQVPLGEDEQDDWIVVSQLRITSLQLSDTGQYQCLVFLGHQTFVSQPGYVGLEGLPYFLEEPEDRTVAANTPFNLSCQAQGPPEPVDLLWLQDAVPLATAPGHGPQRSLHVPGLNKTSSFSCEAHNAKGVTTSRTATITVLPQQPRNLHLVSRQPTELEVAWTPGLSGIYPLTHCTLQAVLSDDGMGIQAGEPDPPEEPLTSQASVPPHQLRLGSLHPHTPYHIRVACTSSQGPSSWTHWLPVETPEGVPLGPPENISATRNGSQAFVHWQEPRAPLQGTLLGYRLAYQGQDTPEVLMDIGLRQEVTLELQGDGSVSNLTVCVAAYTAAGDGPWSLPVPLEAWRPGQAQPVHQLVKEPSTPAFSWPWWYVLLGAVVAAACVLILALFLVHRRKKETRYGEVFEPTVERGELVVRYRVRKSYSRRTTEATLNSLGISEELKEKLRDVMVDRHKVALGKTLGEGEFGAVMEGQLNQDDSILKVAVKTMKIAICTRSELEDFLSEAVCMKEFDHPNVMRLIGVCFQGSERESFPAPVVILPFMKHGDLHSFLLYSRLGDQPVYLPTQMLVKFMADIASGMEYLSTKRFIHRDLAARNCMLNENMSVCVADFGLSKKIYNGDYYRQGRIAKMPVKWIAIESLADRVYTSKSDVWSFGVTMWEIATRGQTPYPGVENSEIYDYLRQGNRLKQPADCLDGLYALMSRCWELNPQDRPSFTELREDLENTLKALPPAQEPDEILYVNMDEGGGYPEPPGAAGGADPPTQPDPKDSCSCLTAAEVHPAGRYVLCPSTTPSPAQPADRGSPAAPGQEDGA
# Assay: Phospho-Akt In-Cell Western Assay (inhibition of Axl activity after Axl-antibody cross-linking)
# Assay type: cell-based
# Details: Hela cells, phospho-Akt chemiluminescence normalized to relative cell number; compounds of formula (Ia), Table 1; read-out: IC50
# Summary of the method: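 Phospho-Akt was detected in formaldehyde-fixed cells by in-cell immunostaining with HRP chemiluminescence. Before fixation, HeLa cells kept 24 h in low-serum medium containing 500 ng/mL Axl/Fc received compound for 1 h at 37 °C, followed by 5-min Axl activation through antibody clustering.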
row,Structure (SMILES),IC50
1,"CN(C1CCCC1)C1CCN(c2ccc(Nc3nc(N)n(-c4cc5c(nn4)-c4ccccc4CCC5)n3)cc2F)CC1 [Compound 82, 1-(6,7-dihydro-5H-benzo[6,7]cyclohepta[1,2-c]pyridazin-3-yl)-N^3-(3-fluoro-4-(4-(N-methyl-cyclopentylamino)-piperidinyl)phenyl)-1H-1,2,4-triazole-3,5-diamine]",< 1000 nM
2,"CCCN(CCC)C1CCN(c2ccc(Nc3nc(N)n(-c4cc5c(nn4)-c4ccccc4CCC5)n3)cc2F)CC1 [Compound 83, 1-(6,7-dihydro-5H-benzo[6,7]cyclohepta[1,2-c]pyridazin-3-yl)-N^3-(3-fluoro-4-(4-(dipropylamino)piperidin-1-yl)phenyl)-1H-1,2,4-triazole-3,5-diamine]",1000 to 10000 nM
3,"CCCN1CCC2CN(c3ccc(Nc4nc(N)n(-c5cc6c(nn5)-c5ccccc5CCC6)n4)cc3F)CCC21 (stereo not drawn) [Compound 84, 1-(6,7-dihydro-5H-benzo[6,7]cyclohepta[1,2-c]pyridazin-3-yl)-N^3-(3-fluoro-4-(1-propyloctahydro-1H-pyrrolo[3,2-c]pyridine-5-yl)phenyl)-1H-1,2,4-triazole-3,5-diamine]",< 1000 nM
4,"CN1CCN(C2CCN(c3ccc(Nc4nc(N)n(-c5cc6c(nn5)CCCc5ccccc5-6)n4)cc3F)CC2)CC1 [Compound 85, 1-(6,7-dihydro-5H-benzo[6,7]cyclohepta[4,5-c]pyridazin-2-yl)-N^3-(3-fluoro-4-(4-(N-methylpiperazin-1-yl)piperidin-1-yl)phenyl)-1H-1,2,4-triazole-3,5-diamine]",< 1000 nM
5,"CC(C)(C)OC(=O)NC1CCN(c2ccc(Nc3nc(N)n(-c4cc5c(nn4)-c4ccccc4CCC5)n3)cc2F)CC1 [Compound 86, 1-(6,7-dihydro-5H-benzo[6,7]cyclohepta[1,2-c]pyridazin-3-yl)-N^3-(3-fluoro-4-(4-(tert-butyloxycarbonylamino)-piperidin-1-yl)phenyl)-1H-1,2,4-triazole-3,5-diamine]",1000 to 10000 nM
6,"Nc1nc(Nc2ccc(N3CCC(N)CC3)c(F)c2)nn1-c1cc2c(nn1)-c1ccccc1CCC2 [Compound 87, 1-(6,7-dihydro-5H-benzo[6,7]cyclohepta[1,2-c]pyridazin-3-yl)-N^3-(3-fluoro-4-(4-aminopiperidin-1-yl)phenyl)-1H-1,2,4-triazole-3,5-diamine]",< 1000 nM
7,"Nc1nc(Nc2ccc(N3CCC(N4CC5CN(C6CCCCC6)CC5C4)CC3)c(F)c2)nn1-c1cc2c(nn1)-c1ccccc1CCC2 (stereo not drawn) [Compound 88, 1-(6,7-dihydro-5H-benzo[6,7]cyclohepta[1,2-c]pyridazin-3-yl)-N^3-(3-fluoro-4-(4-(5-cyclohexyl-octahydropyrrolo[3,4-c]pyrrolyl)piperidin-1-yl)phenyl)-1H-1,2,4-triazole-3,5-diamine]",< 1000 nM
8,"Nc1nc(Nc2ccc3c(c2)CCCCO3)nn1-c1cc2c(nn1)-c1ccccc1CCC2 [Compound 89, 1-(6,7-dihydro-5H-benzo[6,7]cyclohepta[1,2-c]pyridazin-3-yl)-N^3-(2,3,4,5-tetrahydrobenzo[b]oxepin-7-yl)-1H-1,2,4-triazole-3,5-diamine]",1000 to 10000 nM
9,"CCCCN(Cc1ccc(Nc2nc(N)n(-c3cc4c(nn3)-c3ccccc3CCC4)n2)cc1)C(C)=O [Compound 90, 1-(6,7-dihydro-5H-benzo[6,7]cyclohepta[1,2-c]pyridazin-3-yl)-N^3-(4-((N-butyl-N-acetoamino)methyl)phenyl)-1H-1,2,4-triazole-3,5-diamine]",1000 to 10000 nM
10,"Nc1nc(Nc2ccc(CC3C(=O)Nc4ccc(F)cc43)cc2)nn1-c1cc2c(nn1)-c1ccccc1CCC2 (stereo not drawn) [Compound 91, 1-(6,7-dihydro-5H-benzo[6,7]cyclohepta[1,2-c]pyridazin-3-yl)-N^3-(4-((5-fluoroindolin-2-on-3-yl)methyl)phenyl)-1H-1,2,4-triazole-3,5-diamine]",> 20000 nM
11,"Nc1nc(Nc2ccc(I)nc2)nn1-c1cc2c(nn1)-c1ccccc1CCC2 [Compound 92, 1-(6,7-dihydro-5H-benzo[6,7]cyclohepta[1,2-c]pyridazin-3-yl)-N^3-(6-iodopyridin-3-yl)-1H-1,2,4-triazole-3,5-diamine]",> 20000 nM
12,"Nc1nc(Nc2cccnc2)nn1-c1cc2c(nn1)-c1ccccc1CCC2 [Compound 93, 1-(6,7-dihydro-5H-benzo[6,7]cyclohepta[1,2-c]pyridazin-3-yl)-N^3-(pyridin-3-yl)-1H-1,2,4-triazole-3,5-diamine]",> 20000 nM
13,"Nc1ccc(-c2ccc(Nc3nc(N)n(-c4cc5c(nn4)-c4ccccc4CCC5)n3)cn2)cn1 [Compound 94, 1-(6,7-dihydro-5H-benzo[6,7]cyclohepta[1,2-c]pyridazin-3-yl)-N^3-(6-(6-aminopyridin-3-yl)pyridine-3-yl)-1H-1,2,4-triazole-3,5-diamine]",> 20000 nM
14,"Nc1cccc(-c2ccc(Nc3nc(N)n(-c4cc5c(nn4)-c4ccccc4CCC5)n3)cn2)c1 [Compound 95, 1-(6,7-dihydro-5H-benzo[6,7]cyclohepta[1,2-c]pyridazin-3-yl)-N^3-(6-(3-aminophenyl)pyridine-3-yl)-1H-1,2,4-triazole-3,5-diamine]",> 20000 nM
15,"N#Cc1cccc(-c2ccc(Nc3nc(N)n(-c4cc5c(nn4)-c4ccccc4CCC5)n3)cn2)c1 [Compound 96, 1-(6,7-dihydro-5H-benzo[6,7]cyclohepta[1,2-c]pyridazin-3-yl)-N^3-(6-(3-cyanophenyl)pyridine-3-yl)-1H-1,2,4-triazole-3,5-diamine]",> 20000 nM
16,"Nc1nc(Nc2ccc(-c3ccc4c(c3)OCO4)nc2)nn1-c1cc2c(nn1)-c1ccccc1CCC2 [Compound 97, 1-(6,7-dihydro-5H-benzo[6,7]cyclohepta[1,2-c]pyridazin-3-yl)-N^3-(6-(benzo[d][1,3]dioxole-6-yl)pyridine-3-yl)-1H-1,2,4-triazole-3,5-diamine]",> 20000 nM
17,"CS(=O)(=O)Nc1cccc(-c2ccc(Nc3nc(N)n(-c4cc5c(nn4)-c4ccccc4CCC5)n3)cn2)c1 [Compound 98, 1-(6,7-dihydro-5H-benzo[6,7]cyclohepta[1,2-c]pyridazin-3-yl)-N^3-(6-(3-methylsulfonamidylphenyl)-pyridine-3-yl)-1H-1,2,4-triazole-3,5-diamine]",> 20000 nM
18,"CN1CCC(c2ccc(Nc3nc(N)n(-c4cc5c(nn4)-c4ccccc4CCC5)n3)cc2)CC1 [Compound 99, 1-(6,7-dihydro-5H-benzo[6,7]cyclohepta[1,2-c]pyridazin-3-yl)-N^3-(4-(methylpiperidin-4-yl)phenyl)-1H-1,2,4-triazole-3,5-diamine]",< 1000 nM
19,"Nc1nc(Nc2ccc3c(c2)OCCCO3)nn1-c1cc2c(nn1)-c1ccccc1CCC2 [Compound 100, 1-(6,7-dihydro-5H-benzo[6,7]cyclohepta[1,2-c]pyridazin-3-yl)-N^3-(3,4-dihydro-2H-benzo[b][1,4]dioxepin-7-yl)-1H-1,2,4-triazole-3,5-diamine]",1000 to 10000 nM
20,"Nc1nc(Nc2ccc(N3CCC(N4CCCC4)CC3)cc2)nn1-c1cc2c(nn1)-c1ccccc1CCC2 [Compound 101, 1-(6,7-dihydro-5H-benzo[6,7]cyclohepta[1,2-c]pyridazin-3-yl)-N^3-(4-(4-pyrrolidin-1-ylpiperidinyl)phenyl)-1H-1,2,4-triazole-3,5-diamine]",< 1000 nM
21,"Nc1nc(Nc2ccc(CN3CCC(N4CCCC4)CC3)cc2)nn1-c1cc2c(nn1)-c1ccccc1CCC2 [Compound 103, 1-(6,7-dihydro-5H-benzo[6,7]cyclohepta[1,2-c]pyridazin-3-yl)-N^3-(4-((4-pyrrolidin-1-ylpiperidinyl)methyl)phenyl)-1H-1,2,4-triazole-3,5-diamine]",< 1000 nM
22,"Nc1nc(Nc2ccc(CN3CCN(C4CCCC4)CC3)cc2)nn1-c1cc2c(nn1)-c1ccccc1CCC2 [Compound 104, 1-(6,7-dihydro-5H-benzo[6,7]cyclohepta[1,2-c]pyridazin-3-yl)-N^3-(4-((4-cyclopentylpiperazinyl)-methyl)phenyl)-1H-1,2,4-triazole-3,5-diamine]",< 1000 nM
23,"Cc1cc(Nc2nc(N)n(-c3cc4c(nn3)-c3ccccc3CCC4)n2)ccc1N1CCC(N2CCCC2)CC1 [Compound 106, 1-(6,7-dihydro-5H-benzo[6,7]cyclohepta[1,2-c]pyridazin-3-yl)-N^3-(3-methyl-4-(4-pyrrolidin-1-ylpiperidinyl)phenyl)-1H-1,2,4-triazole-3,5-diamine]",< 1000 nM
24,"Nc1nc(Nc2ccc(N3CCN(C4CCCC4)CC3)c(F)c2)nn1-c1cc2c(nn1)-c1ccccc1CCC2 [Compound 107, 1-(6,7-dihydro-5H-benzo[6,7]cyclohepta[1,2-c]pyridazin-3-yl)-N^3-(3-fluoro-4-(4-cyclopentylpiperazinyl)-phenyl)-1H-1,2,4-triazole-3,5-diamine]",< 1000 nM
